Data reported in publication PMC9929129, “Towards Translation of PqsR Inverse Agonists: From In Vitro Efficacy Optimization to In Vivo Proof‐of‐Principle” (Advanced Science, 2023).
“Also recorded” adds a separate entry of the source.

Legend:
[1] = molecular target: T1, ENaC channel (Homo sapiens, UniProt P37088+P51168+P51170); test: Ion channel profiling at Charles River: ENaC; type: cell-based
T1 construct: host or cells: HEK293 cells
Method: (§1) 1.4.3 Ion Channel Profiling at Charles River
Table S9. Compound 24 was tested against the following ion channels at Charles River Laboratories.
ASSAY TYPE ION CHANNEL AND EXPRESSION SYSTEM ESTIMATED […]
ScreenPatch Assay Kv1.3 potassium channel (human KCNA3 gene) expressed in CHO
ENaC channel (human SCNN1A, SCNN1B and SCNN1G genes, >30
(§2) FLIPR Assay expressed in HEK293 cells
GABAA α5/β3/γ2 ionotropic receptor (human GABRA5, GABRB3, >30
and GABRG2 genes, expressed in HEK293 cells

[2] = molecular target: T2, CFTR cystic fibrosis transmembrane conductance regulator (Homo sapiens, UniProt P13569); test: Ion channel profiling at Charles River: CFTR; type: cell-based; details: expressed in CHO cells; read-out: ESTIMATED IC50
T2 construct: host or cells: CHO cells
T2 sequence (P13569 whole entry): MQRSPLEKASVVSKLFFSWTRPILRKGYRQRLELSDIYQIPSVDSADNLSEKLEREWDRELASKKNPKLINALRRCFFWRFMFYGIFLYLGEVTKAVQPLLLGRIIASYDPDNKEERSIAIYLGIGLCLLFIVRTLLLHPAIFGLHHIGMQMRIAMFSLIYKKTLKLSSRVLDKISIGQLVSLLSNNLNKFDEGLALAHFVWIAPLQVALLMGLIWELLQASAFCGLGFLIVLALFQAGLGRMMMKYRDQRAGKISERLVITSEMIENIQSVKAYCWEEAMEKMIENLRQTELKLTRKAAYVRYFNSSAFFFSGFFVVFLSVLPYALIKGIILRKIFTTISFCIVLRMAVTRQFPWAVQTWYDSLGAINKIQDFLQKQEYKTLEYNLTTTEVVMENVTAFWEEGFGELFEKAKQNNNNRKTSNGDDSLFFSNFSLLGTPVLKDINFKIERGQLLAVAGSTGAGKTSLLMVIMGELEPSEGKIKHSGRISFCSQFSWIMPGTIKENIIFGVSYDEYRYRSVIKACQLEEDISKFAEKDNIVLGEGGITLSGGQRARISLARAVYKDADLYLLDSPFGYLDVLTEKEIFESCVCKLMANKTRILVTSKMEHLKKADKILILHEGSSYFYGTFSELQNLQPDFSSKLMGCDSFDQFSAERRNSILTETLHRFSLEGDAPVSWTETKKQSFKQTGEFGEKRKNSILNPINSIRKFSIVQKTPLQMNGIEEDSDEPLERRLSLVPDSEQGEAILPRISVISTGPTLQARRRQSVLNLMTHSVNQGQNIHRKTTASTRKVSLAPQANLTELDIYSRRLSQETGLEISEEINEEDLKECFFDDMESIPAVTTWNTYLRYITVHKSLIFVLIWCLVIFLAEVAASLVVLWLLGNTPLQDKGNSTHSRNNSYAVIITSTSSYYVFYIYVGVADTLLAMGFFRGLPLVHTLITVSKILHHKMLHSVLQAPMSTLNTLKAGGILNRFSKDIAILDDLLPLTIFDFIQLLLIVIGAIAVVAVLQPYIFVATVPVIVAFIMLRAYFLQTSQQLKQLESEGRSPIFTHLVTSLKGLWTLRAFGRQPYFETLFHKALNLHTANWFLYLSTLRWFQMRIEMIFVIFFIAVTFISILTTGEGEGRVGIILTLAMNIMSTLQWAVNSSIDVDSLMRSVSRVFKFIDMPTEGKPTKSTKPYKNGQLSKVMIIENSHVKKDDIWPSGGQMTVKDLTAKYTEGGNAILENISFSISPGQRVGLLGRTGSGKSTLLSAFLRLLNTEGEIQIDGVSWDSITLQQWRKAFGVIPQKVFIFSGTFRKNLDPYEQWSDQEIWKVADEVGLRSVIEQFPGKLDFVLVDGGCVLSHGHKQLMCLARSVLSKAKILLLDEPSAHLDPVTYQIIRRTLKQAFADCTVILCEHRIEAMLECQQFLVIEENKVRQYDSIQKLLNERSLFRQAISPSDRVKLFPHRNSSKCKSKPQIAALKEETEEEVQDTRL
Method: as §1
Table S9. Compound 24 was tested against the following ion channels at Charles River Laboratories. […]
FASTPatch Assay IK (KCa3.1) calcium-activated potassium channel (human KCNN4 >30 gene) expressed in CHO cells […]
CFTR cystic fibrosis transmembrane conductance regulator (Cl-channel encoded by human CFTR gene) expressed in CHO cells >30 […]
as §2
GABAA α5/β3/γ2 ionotropic receptor (human GABRA5, GABRB3, >30 and GABRG2 genes, expressed in HEK293 cells

[3] = tested on: Salmonella typhimurium TA98 and TA100; test: Mini-AMES; type: cell-based; details: @62.25 µg mL^−1 (147 × 10^−6 M); also in presence of rat liver S9 fractions
Method: P2X4 receptor (human P2RX4 gene) expressed in HEK293 cells >30
TRPA1 channel (human TRPA1 gene) expressed in CHO cells >30
TRPC6 channel (human TRPC6 gene) expressed in HEK293 cells >30
TRPV1 channel (human TRPV1 gene) expressed in HEK293 cells >30
TRPV4 channel (human TRPV4 gene) expressed in CHO cells >30
1.4.4 Pharmacokinetic and off-target functional assays (Cyprotex)
Compound 24 was assayed at Cyprotex in functional assays for interference with important off-targets as well as important pharmacokinetic parameters. With the exception of plasma protein binding, a dose-response relationship was studied in order to calculate IC50 values.
Table S10. Information on in vitro ADMET assays performed at Cyprotex. […]
Approximately ten million bacteria were exposed in triplicate to 24 (1.9, 3.9, 7.8, 15.6, 31.2, 62.5 µg/mL), a negative control (vehicle) and positive controls for 90 min in medium containing a low concentration of histidine (sufficient for about 2 doublings.) The cultures were then diluted into indicator medium lacking histidine, and dispensed into 48 wells of 384-well plates (micro-plate format, MPF). […] The wells showing growth were counted and compared to the vehicle control. […]
The maximum tolerated dose of 24 in NMRI mice was conducted and analyzed at CRO ATRC Aurigon Toxicological Research Center Ltd, Hungary. […]

[4] = molecular target: T3, Lck kinase (h) (Homo sapiens, UniProt P06239); test: Cerep panel functional assay; type: biochemical
T3 construct: Eurofins Pharma Discovery (CRO that ran the assay) SafetyScreen44 Panel (Cerep, ITEM P270)
T3 sequence (P06239 whole entry): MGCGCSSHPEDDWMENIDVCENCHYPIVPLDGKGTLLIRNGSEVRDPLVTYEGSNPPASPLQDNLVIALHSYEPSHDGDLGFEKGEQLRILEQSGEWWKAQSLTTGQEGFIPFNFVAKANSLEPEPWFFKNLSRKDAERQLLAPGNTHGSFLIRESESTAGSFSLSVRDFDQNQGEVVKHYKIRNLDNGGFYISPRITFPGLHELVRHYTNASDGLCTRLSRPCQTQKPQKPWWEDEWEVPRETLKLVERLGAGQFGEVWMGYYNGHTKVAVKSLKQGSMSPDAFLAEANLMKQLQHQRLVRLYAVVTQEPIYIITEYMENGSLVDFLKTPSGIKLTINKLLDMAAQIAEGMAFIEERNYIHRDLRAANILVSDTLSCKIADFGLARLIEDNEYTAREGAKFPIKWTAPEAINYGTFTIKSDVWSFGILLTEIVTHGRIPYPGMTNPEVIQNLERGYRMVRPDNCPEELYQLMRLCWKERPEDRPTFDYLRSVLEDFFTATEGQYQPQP
Method: (§3) 1.4 Safety Pharmacology of Compound 24
(§4) 1.4.1 Cerep panel (Eurofins)
(§5) Compound 24 was further profiled for its off-target interactions against a panel of 44 targets. The
(§6) screening was done by Eurofins Pharma Discovery within the SafetyScreen44 Panel (Cerep, ITEM
(§7) P270). In all assays binding/functional inhibition was determined at 10 µM. […]

[5] = molecular target: T4, COX-1 (h) (Homo sapiens, UniProt P23219); test: Cerep panel functional assay; type: biochemical
T4 construct: Eurofins Pharma Discovery (CRO that ran the assay) SafetyScreen44 Panel (Cerep, ITEM P270)
Method: as §3, §4, §5, §6, §7

[6] = molecular target: T5, COX-2 (h) (Homo sapiens, UniProt P35354); test: Cerep panel functional assay; type: biochemical
T5 construct: Eurofins Pharma Discovery (CRO that ran the assay) SafetyScreen44 Panel (Cerep, ITEM P270)
T5 sequence (P35354 18-604): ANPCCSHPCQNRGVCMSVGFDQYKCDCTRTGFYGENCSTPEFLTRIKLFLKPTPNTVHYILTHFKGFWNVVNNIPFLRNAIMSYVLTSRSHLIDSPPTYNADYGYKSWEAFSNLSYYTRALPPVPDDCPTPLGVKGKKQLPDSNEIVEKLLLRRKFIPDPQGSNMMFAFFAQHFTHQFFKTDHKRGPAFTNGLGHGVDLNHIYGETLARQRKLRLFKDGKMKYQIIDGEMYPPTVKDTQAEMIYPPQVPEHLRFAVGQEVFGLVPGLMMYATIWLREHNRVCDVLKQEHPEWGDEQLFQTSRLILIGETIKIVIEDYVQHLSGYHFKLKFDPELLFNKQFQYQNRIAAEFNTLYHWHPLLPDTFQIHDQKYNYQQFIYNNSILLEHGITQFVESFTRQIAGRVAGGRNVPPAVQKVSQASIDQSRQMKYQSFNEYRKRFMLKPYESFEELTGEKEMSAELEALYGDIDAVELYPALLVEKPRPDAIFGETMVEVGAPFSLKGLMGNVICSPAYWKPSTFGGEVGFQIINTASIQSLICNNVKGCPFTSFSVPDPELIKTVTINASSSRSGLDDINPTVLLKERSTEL
Method: as §3, §4, §5, §6, §7

[7] = molecular target: T6, PDE3A (h) (Homo sapiens, UniProt Q14432); test: Cerep panel functional assay; type: biochemical
T6 construct: Eurofins Pharma Discovery (CRO that ran the assay) SafetyScreen44 Panel (Cerep, ITEM P270)
Method: as §3, §4, §5, §6, §7

[8] = molecular target: T7, PDE4D2 (h) (Homo sapiens, UniProt Q08499); test: Cerep panel functional assay; type: biochemical
T7 construct: Eurofins Pharma Discovery (CRO that ran the assay) SafetyScreen44 Panel (Cerep, ITEM P270)
T7 sequence (Q08499 303-809 limits assumed): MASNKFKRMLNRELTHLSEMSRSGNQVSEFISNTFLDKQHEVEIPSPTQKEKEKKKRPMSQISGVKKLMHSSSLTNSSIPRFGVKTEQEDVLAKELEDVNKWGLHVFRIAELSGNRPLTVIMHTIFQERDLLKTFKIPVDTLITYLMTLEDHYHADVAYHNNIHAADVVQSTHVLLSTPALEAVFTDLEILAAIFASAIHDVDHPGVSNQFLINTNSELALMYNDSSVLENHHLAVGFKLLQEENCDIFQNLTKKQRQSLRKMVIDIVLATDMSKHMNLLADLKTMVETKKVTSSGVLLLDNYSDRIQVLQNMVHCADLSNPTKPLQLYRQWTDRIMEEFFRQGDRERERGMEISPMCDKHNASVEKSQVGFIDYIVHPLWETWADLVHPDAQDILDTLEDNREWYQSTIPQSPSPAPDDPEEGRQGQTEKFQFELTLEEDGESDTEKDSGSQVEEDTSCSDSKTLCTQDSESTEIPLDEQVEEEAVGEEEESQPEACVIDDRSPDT
Method: as §3, §4, §5, §6, §7

[9] = molecular target: T8, acetylcholinesterase (h) (Homo sapiens, UniProt P22303); test: Cerep panel functional assay; type: biochemical
T8 construct: Eurofins Pharma Discovery (CRO that ran the assay) SafetyScreen44 Panel (Cerep, ITEM P270)
Method: as §3, §4, §5, §6, §7

T1 sequence (P51170 whole entry): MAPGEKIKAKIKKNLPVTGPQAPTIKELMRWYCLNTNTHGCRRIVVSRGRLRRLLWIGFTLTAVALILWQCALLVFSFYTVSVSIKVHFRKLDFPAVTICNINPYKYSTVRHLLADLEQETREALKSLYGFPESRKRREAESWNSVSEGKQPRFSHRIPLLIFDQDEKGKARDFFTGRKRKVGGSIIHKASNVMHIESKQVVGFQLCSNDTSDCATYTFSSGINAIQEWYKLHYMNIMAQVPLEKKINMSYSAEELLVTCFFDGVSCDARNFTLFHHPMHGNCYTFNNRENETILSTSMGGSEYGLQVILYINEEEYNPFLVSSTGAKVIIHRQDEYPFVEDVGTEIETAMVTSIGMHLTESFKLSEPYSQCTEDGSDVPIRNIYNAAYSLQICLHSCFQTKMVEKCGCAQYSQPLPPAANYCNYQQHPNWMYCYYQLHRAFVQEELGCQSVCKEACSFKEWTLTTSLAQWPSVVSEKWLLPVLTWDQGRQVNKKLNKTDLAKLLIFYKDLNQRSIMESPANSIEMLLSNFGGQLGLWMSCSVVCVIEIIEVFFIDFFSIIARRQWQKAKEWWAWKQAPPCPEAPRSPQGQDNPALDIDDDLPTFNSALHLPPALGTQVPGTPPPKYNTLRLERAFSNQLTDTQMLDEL
T1 sequence (P37088 whole entry): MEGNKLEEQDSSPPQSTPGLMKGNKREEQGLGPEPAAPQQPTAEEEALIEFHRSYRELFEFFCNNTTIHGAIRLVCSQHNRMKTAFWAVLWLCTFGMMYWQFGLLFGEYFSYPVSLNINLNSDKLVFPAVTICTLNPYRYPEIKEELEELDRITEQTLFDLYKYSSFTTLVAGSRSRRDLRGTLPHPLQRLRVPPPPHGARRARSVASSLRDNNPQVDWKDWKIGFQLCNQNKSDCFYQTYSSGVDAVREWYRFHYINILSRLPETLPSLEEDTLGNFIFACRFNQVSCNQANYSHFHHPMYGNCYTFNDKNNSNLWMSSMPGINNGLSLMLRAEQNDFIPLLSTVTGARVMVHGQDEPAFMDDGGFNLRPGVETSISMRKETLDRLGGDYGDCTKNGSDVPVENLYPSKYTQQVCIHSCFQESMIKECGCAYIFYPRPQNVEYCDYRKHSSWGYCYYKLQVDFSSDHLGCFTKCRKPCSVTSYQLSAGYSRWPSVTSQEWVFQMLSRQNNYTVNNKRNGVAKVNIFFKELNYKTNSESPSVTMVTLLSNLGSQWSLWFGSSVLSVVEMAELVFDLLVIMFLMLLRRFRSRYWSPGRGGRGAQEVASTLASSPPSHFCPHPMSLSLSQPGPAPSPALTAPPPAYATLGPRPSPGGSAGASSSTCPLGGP
T1 sequence (P51168 whole entry): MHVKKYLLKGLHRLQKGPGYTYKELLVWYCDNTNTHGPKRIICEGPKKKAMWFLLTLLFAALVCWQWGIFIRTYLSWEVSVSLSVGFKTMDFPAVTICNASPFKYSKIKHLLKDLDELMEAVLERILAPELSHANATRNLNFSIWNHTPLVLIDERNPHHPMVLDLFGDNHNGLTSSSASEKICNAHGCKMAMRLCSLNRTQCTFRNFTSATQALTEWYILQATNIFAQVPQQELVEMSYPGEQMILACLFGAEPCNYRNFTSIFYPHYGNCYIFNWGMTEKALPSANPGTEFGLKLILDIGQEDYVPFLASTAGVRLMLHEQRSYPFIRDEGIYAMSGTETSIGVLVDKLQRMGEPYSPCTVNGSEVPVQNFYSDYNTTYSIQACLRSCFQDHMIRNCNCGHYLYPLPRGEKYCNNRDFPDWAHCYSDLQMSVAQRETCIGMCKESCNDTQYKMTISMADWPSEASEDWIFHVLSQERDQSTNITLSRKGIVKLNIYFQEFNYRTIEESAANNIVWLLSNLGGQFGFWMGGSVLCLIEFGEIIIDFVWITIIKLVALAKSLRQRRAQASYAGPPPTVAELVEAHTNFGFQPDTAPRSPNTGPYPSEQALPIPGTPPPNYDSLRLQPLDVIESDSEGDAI

CC(C)Oc1ccc(-c2ncc(CNc3ccnc(C(F)(F)F)c3)cn2)cc1Cl [Compound 24]
IC50 [1]: > 30 µM
IC50 [2]: > 30 µM
Mini‐AMES genotoxicity [3]: no genotoxicity; also recorded: Negative @62.25 µg mL^−1 (147 × 10^−6 M)
inhibition at 10 µM [4]: -6.8%
inhibition at 10 µM [5]: 8.8%
inhibition at 10 µM [6]: 19.1%
inhibition at 10 µM [7]: 0.3%
inhibition at 10 µM [8]: 6.7%
inhibition at 10 µM [9]: -1.9%
